# Laboratory results reported in publication PMC12586182 (Frontiers in Oncology, 2025).
# Where “and” joins values, the source holds several entries; their conditions need not be identical. Equal entries are not always repeated. Where two headings read alike, the source gives them in different places.
# Assays:
# B-RAF [V600E] = B-RAF [V600E] (Homo sapiens, UniProt P15056, V600E); test: Kinase enzyme activity assay at 1 mmol/L ATP (Carna)
# Procedure: (§2) Inhibition of MLK1 and B-RAF at K M,ATP was determined in a radiometric assay using ^32P-labeled ATP at Eurofins Cerep SA (Celle-Lévescault, France).
# B-RAF = B-RAF (Homo sapiens, UniProt P15056); test: as above
# Chain of B-RAF (P15056 whole entry): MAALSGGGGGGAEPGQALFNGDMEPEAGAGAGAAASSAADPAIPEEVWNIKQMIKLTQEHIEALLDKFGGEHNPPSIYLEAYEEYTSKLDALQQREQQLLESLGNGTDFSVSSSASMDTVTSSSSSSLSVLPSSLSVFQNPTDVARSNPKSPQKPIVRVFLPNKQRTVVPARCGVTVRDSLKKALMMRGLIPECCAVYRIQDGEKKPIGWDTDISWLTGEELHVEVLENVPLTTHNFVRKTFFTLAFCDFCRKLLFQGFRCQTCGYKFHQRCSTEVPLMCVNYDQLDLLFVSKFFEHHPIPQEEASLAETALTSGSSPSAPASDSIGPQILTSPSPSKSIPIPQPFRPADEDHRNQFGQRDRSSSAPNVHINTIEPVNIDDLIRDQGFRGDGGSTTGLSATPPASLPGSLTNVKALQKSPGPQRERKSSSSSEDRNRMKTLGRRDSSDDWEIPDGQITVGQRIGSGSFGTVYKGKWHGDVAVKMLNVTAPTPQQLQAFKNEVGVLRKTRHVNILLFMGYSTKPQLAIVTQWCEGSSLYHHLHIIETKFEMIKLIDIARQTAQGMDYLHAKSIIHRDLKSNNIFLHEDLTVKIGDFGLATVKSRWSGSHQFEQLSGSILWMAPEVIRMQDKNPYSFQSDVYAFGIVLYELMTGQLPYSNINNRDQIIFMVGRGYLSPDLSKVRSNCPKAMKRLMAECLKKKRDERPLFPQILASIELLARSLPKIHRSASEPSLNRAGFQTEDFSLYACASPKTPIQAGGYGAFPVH
# Procedure: as §2
# MEK1 [1] = biological target: T1, MEK1 (Homo sapiens, UniProt Q02750); parameters: method as in Reiff et al. [15]; conditions: 1 mmol/L ATP; ref Reiff et al. [15]; read-out: IC50 in an enzyme assay for MEK1; cited from earlier work
# T1 construct: purchased Carna Biosciences, Inc. 07–41
# T1 sequence (Q02750 whole entry): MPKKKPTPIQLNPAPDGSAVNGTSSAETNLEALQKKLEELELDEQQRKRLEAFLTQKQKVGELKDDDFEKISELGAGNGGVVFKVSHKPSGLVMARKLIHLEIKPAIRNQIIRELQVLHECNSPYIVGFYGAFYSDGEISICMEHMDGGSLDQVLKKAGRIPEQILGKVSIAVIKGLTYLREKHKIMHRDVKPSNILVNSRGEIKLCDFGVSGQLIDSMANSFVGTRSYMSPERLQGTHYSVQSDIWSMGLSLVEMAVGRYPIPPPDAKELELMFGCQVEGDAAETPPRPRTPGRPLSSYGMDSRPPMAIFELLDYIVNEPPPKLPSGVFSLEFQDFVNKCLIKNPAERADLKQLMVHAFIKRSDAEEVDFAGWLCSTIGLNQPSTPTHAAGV
# activated B-RAF [2] = biological target: T2, activated B-RAF (Homo sapiens, UniProt P15056); test: biochemical
# T2 sequence (P15056 whole entry): as the sequence (P15056 whole entry) above
# Hs 746.T = test: Cell viability assay (ATPlite); type: cell-based; conditions: Homo sapiens, Hs746T; Hs 746.T cell line, 72 hours incubation
# Procedure: (§1) Intracellular ATP content was used as an indirect readout of cell number using the ATPlite 1Step bioluminescence assay (Revvity, Groningen, the Netherlands). Cells were seeded in 384-well plates at an optimized density to ensure unrestricted growth and maximal signal at the end of the experiment. After 24 hours of incubation, the starting cell number was determined by adding ATPlite to each well of a control plate and recording luminescence on an Envision multimode reader (Revvity, Waltham, MA, USA) ([4]). Compounds were diluted in DMSO in √10-fold steps from 10 mmol/L stocks to obtain 9-point dilution series. After further 31.6-fold dilution in 20 mmol/L HEPES (pH 7.4), the dilution series were added in duplicate to the cells in the 384-well plates to determine the effect of the compounds on cell viability. Vehicle-treated controls were included to determine maximal cell proliferation. The final DMSO concentration was 0.4% (v/v) in all wells. After incubation for an additional 72 hours, the ATP content was measured in each well using ATPlite. The luminescent signal in inhibitor-treated wells was normalized to vehicle-treated control wells to determine the percentage viability at each concentration. Cell doublings were determined by relating the cell number of vehicle-treated controls to the starting cell number for each cell line. The viability assay of a cell line was repeated when the cell doubling deviated > 2-fold from the historic doubling as determined by multiple independent experiments. The quality of the complete assay was determined by a parallel test with doxorubicin on two cell lines. IC50 values were calculated by fitting a four-parameter logistic model to the percentage viability values using IDBS XLfit5 (IDBS, Guildford, United Kingdom). All curves were visually inspected and submitted to an F-test as implemented in IDBS XLfit5. Curves with an F-value above 1.5 were invalidated and IC50 values were maximized at the highest concentration.
# TT = test: Cell viability assay (ATPlite); type: cell-based; conditions: Homo sapiens; TT cell line, 72 hours incubation
# Procedure: as §1
# PA-1 = test: Cell viability assay (ATPlite); type: cell-based; conditions: Homo sapiens; PA-1 cell line, 72 hours incubation
# Procedure: as §1
# NCI-H82 = test: Cell viability assay (ATPlite); type: cell-based; conditions: Homo sapiens; NCI-H82 cell line, 72 hours incubation
# Procedure: as §1
# CCRF-CEM = test: Cell viability assay (ATPlite); type: cell-based; conditions: Homo sapiens; CCRF-CEM cell line, 72 hours incubation
# Procedure: as §1
# U2OS = test: Cell viability assay (ATPlite); type: cell-based; conditions: Homo sapiens; U2OS cell line, 72 hours incubation
# Procedure: as §1
# SW1573 = test: Cell viability assay (ATPlite); type: cell-based; conditions: Homo sapiens; SW1573 cell line, 72 hours incubation
# Procedure: as §1
# ES-2 = test: Cell viability assay (ATPlite); type: cell-based; conditions: Homo sapiens; ES-2 cell line, 72 hours incubation
# Procedure: as §1
# A-549 = test: Cell viability assay (ATPlite); type: cell-based; conditions: Homo sapiens, A549; A-549 cell line, 72 hours incubation
# Procedure: as §1
# RL95-2 = test: Cell viability assay (ATPlite); type: cell-based; conditions: Homo sapiens; RL95-2 cell line, 72 hours incubation
# Procedure: as §1
# DB = test: Cell viability assay (ATPlite); type: cell-based; conditions: Homo sapiens; DB cell line, 72 hours incubation
# Procedure: as §1
# AP-1060 = test: Cell viability assay (ATPlite); type: cell-based; conditions: Homo sapiens; AP-1060 cell line, 72 hours incubation
# Procedure: as §1
# MM1.S = test: Cell viability assay (ATPlite); type: cell-based; conditions: Homo sapiens; MM1.S cell line, 72 hours incubation
# Procedure: as §1
# J82 = test: Cell viability assay (ATPlite); type: cell-based; conditions: Homo sapiens; J82 cell line, 72 hours incubation
# Procedure: as §1
# OVCAR-3 = test: Cell viability assay (ATPlite); type: cell-based; conditions: Homo sapiens; OVCAR-3 cell line, 72 hours incubation
# Procedure: as §1
# SR = test: Cell viability assay (ATPlite); type: cell-based; conditions: Homo sapiens; SR cell line, 72 hours incubation
# Procedure: as §1
# SK-N-FI = test: Cell viability assay (ATPlite); type: cell-based; conditions: Homo sapiens; SK-N-FI cell line, 72 hours incubation
# Procedure: as §1
# MeWo = test: Cell viability assay (ATPlite); type: cell-based; conditions: Homo sapiens; MeWo cell line, 72 hours incubation
# Procedure: as §1
# LS411N = test: Cell viability assay (ATPlite); type: cell-based; conditions: Homo sapiens, LS-411N; LS411N cell line, 72 hours incubation
# Procedure: as §1
# A-427 = test: Cell viability assay (ATPlite); type: cell-based; conditions: Homo sapiens; A-427 cell line, 72 hours incubation
# Procedure: as §1
# 769-P = test: Cell viability assay (ATPlite); type: cell-based; conditions: Homo sapiens; 769-P cell line, 72 hours incubation
# Procedure: as §1
# SK-OV-3 = test: Cell viability assay (ATPlite); type: cell-based; conditions: Homo sapiens; SK-OV-3 cell line, 72 hours incubation
# Procedure: as §1
# activated B-RAF [3] = biological target: T2, activated B-RAF; test: Surface plasmon resonance binding (Biacore 1S+)
# MEK1 [4] = biological target: T1, MEK1; test: Kinase enzyme activity assay (ELISA, in-house); type: biochemical
# Chain of B-RAF [V600E] (P15056 whole entry V600E): as the sequence (P15056 whole entry) above, with V600E counted along it
compound,measurement,setting,value
O=C(c1ccc(Oc2ccccc2)cc1Cl)c1c[nH]c2ncnc(N[C@@H]3CC[C@@H](CO)OC3)c12 [nemtabrutinib],IC50,B-RAF [V600E],0.22 µM
same,IC50,B-RAF,0.335 µM
same,IC50,MEK1 [1],0.599 µM
same,Kd,activated B-RAF [2],1.2 µM
same,IC50,Hs 746.T,11.4 µM
same,IC50,TT,5.33 µM
same,IC50,PA-1,3.03 µM
same,IC50,NCI-H82,12.3 µM
same,IC50,CCRF-CEM,13.7 µM
same,IC50,U2OS,2.67 µM
same,IC50,SW1573,6.3 µM
same,IC50,ES-2,0.929 µM
same,IC50,A-549,7.26 µM
same,IC50,RL95-2,1.18 µM
same,IC50,DB,17.3 µM
same,IC50,AP-1060,0.736 µM
same,IC50,MM1.S,5.48 µM
same,IC50,J82,7.93 µM
same,IC50,OVCAR-3,0.578 µM
same,IC50,SR,9.15 µM
same,IC50,SK-N-FI,3.94 µM
same,IC50,MeWo,10.2 µM
same,IC50,LS411N,0.767 µM
same,IC50,A-427,1.24 µM
same,IC50,769-P,4.01 µM
same,IC50,SK-OV-3,4.95 µM
same,"difference in affinity, MEK1 versus B-RAF",activated B-RAF [3]; SPR K D B-RAF versus K D MEK1,120 fold
same,log (kd),"activated B-RAF [3]; SPR, B-RAF",-1.26
same,log(ka),"activated B-RAF [3]; SPR, B-RAF",4.66
same,t1/2,"activated B-RAF [3]; SPR, B-RAF",12.5 s
same,IC50,"MEK1 [4]; 1 mmol/L ATP, read-out: IC50, MEK1",0.456 µM
same,IC50,"MEK1 [4]; IC50, MEK1",~0.009 µM
same,IC50,"MEK1 [4]; K M,bin ATP (10 µmol/L ATP), read-out: IC50, MEK1",0.0085 µM and 0.00846 µM
